Data: the supplement of paper PMC10307832

Tests used:
Experiment in all cases: relative viability (nuclei count vs DMSO), 5 days (fraction); higher = more cells survive
Pazopanib + Olaparib = compound: Cc1ccc(Nc2nccc(N(C)c3ccc4c(C)n(C)nc4c3)n2)cc1S(N)(=O)=O [Pazopanib] + O=C(c1cc(Cc2n[nH]c(=O)c3ccccc23)ccc1F)N1CCN(C(=O)C2CC2)CC1 [Olaparib] (partner 8 µM)
In short: (§1)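 Lung cancer cell lines in 1536-well plates were dosed by pin tool the day after seeding, either with one drug alone or with a fixed anchor-drug dose plus five library-drug doses (not always all listed) in √10 steps. After 5 days, cells were fixed and their nuclei stained in one step (final 0.05% Triton X-100, 1% formaldehyde, 1 ug/ml Hoechst), then counted on 4× images. Relative viability is the nuclei count in treated wells divided by that in vehicle wells. Values are medians of duplicate plates.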

Ponatinib + Trametinib = compound: Cc1ccc(C(=O)Nc2ccc(CN3CCN(C)CC3)c(C(F)(F)F)c2)cc1C#Cc1cnc2cccnn12 [Ponatinib] + CC(=O)Nc1cccc(-n2c(=O)n(C3CC3)c(=O)c3c(Nc4ccc(I)cc4F)n(C)c(=O)c(C)c32)c1 [Trametinib] (partner 0.02 µM)
In short: as §1

Ponatinib + Luminespib = compound: Cc1ccc(C(=O)Nc2ccc(CN3CCN(C)CC3)c(C(F)(F)F)c2)cc1C#Cc1cnc2cccnn12 [Ponatinib] + CCNC(=O)c1noc(-c2cc(C(C)C)c(O)cc2O)c1-c1ccc(CN2CCOCC2)cc1 [Luminespib] (partner 0.01 µM)
In short: as §1

Pazopanib + Pictilisib = compound: Cc1ccc(Nc2nccc(N(C)c3ccc4c(C)n(C)nc4c3)n2)cc1S(N)(=O)=O [Pazopanib] + CS(=O)(=O)N1CCN(Cc2cc3nc(-c4cccc5[nH]ncc45)nc(N4CCOCC4)c3s2)CC1 [Pictilisib] (partner 1 µM)
In short: as §1

Cell Line | relative viability (Pazopanib + Olaparib; first compound 0.01 µM) | relative viability (Pazopanib + Olaparib; first compound 0.03162 µM) | relative viability (Pazopanib + Olaparib; first compound 0.1 µM) | relative viability (Pazopanib + Olaparib; first compound 0.3162 µM) | relative viability (Pazopanib + Olaparib; first compound 1 µM) | relative viability (Ponatinib + Trametinib; first compound 0.002 µM) | relative viability (Ponatinib + Trametinib; first compound 0.006325 µM) | relative viability (Ponatinib + Trametinib; first compound 0.06325 µM) | relative viability (Ponatinib + Trametinib; first compound 0.2 µM) | relative viability (Ponatinib + Luminespib; first compound 0.002 µM) | relative viability (Ponatinib + Luminespib; first compound 0.006325 µM) | relative viability (Ponatinib + Luminespib; first compound 0.06325 µM) | relative viability (Ponatinib + Luminespib; first compound 0.2 µM) | relative viability (Pazopanib + Pictilisib; first compound 0.01 µM) | relative viability (Pazopanib + Pictilisib; first compound 0.03162 µM) | relative viability (Pazopanib + Pictilisib; first compound 0.1 µM) | relative viability (Pazopanib + Pictilisib; first compound 0.3162 µM) | relative viability (Pazopanib + Pictilisib; first compound 1 µM)
HCC-827 | 0.675 | 0.644 | 0.691 | 0.706 | 0.673 | 0.526 | 0.558 | 0.558 | 0.459 | 0.476 | 0.914 | 0.446 | 0.589 | 0.894 | 1.17 | 1.03 | 0.946 | 1.12
HOP-62 | 0.411 | 0.454 | 0.518 | 0.383 | 0.288 | 0.417 | 0.403 | 0.374 | 0.338 | 0.87 | 0.946 | 0.835 | 0.781 | 0.479 | 0.768 |  | 0.874 | 0.874
IA-LM | 0.719 | 0.909 | 0.925 | 0.774 | 0.658 |  |  |  |  |  |  |  |  | 0.368 | 0.439 | 0.4 | 0.568 | 0.524
LC-2-ad | 0.796 | 0.684 | 0.705 | 0.778 | 0.682 | 0.809 | 0.822 | 0.62 | 0.533 | 0.968 | 0.93 | 1.17 | 0.855 | 0.412 | 0.436 | 0.515 | 0.196 | 0.527
LCLC-97TM1 |  | 0.313 | 0.534 | 0.293 | 0.252 | 0.186 | 0.208 | 0.168 | 0.162 | 0.677 | 0.704 | 0.647 | 0.439 |  | 0.196 | 0.195 | 0.201 | 0.179
LCLC-103H | 0.723 | 0.699 | 0.769 | 0.79 | 0.799 | 0.678 | 0.718 | 0.673 | 0.579 | 0.928 | 0.974 | 0.908 | 0.733 | 0.531 | 0.575 | 0.635 | 0.764 | 0.588
LK-2 | 0.575 | 0.673 | 0.735 | 0.807 | 0.539 | 0.787 | 0.666 | 0.746 | 0.587 |  | 0.185 | 0.181 | 0.158 | 0.508 | 0.724 | 0.729 | 0.558 | 0.496
LOU-NH91 | 0.925 | 0.888 | 0.926 | 0.96 | 0.931 | 0.803 | 0.807 | 0.886 | 0.764 | 0.317 | 0.318 | 0.393 | 0.404 | 0.501 | 0.534 | 0.502 | 0.568 | 0.543
LU99A |  | 0.243 | 0.313 | 0.275 | 0.267 | 0.476 | 0.554 | 0.342 | 0.305 | 0.288 | 0.25 | 0.274 | 0.242 | 0.241 | 0.374 | 0.356 | 0.35 | 0.35
LXF-289 | 1.05 | 1.06 | 1.1 | 1.05 | 1.05 | 0.651 | 0.649 | 0.633 | 0.641 | 0.598 | 0.661 | 0.774 | 0.641 | 0.701 | 0.784 | 0.778 | 0.735 | 0.822
NCI-H23 | 0.315 | 0.343 | 0.297 | 0.321 | 0.36 | 0.376 | 0.415 | 0.364 | 0.348 |  | 0.22 | 0.211 | 0.196 | 0.415 | 0.534 | 0.483 | 0.498 | 0.711
NCI-H322M | 0.885 | 0.817 | 0.881 | 0.71 | 0.71 | 0.516 | 0.555 | 0.553 | 0.531 | 1 | 1 | 0.843 | 0.716 | 0.498 | 0.564 | 0.582 | 0.571 | 0.54
NCI-H358 | 0.757 | 0.662 | 0.629 | 0.639 | 0.599 | 0.162 | 0.147 | 0.12 | 0.103 | 0.406 | 0.418 | 0.597 | 0.262 | 0.337 | 0.333 | 0.297 | 0.415 | 0.395
NCI-H441 | 0.558 | 0.519 | 0.511 | 0.429 | 0.611 | 0.389 | 0.435 | 0.485 | 0.382 | 0.359 | 0.354 | 0.305 | 0.315 | 0.449 | 0.52 | 0.573 | 0.603 | 0.39
NCI-H522 | 0.587 | 0.617 | 0.678 | 0.707 | 0.642 | 0.739 | 0.876 | 0.594 | 0.629 | 1.17 | 1.3 | 1.18 | 1.09 |  |  |  |  | 
NCI-H1299 | 1 | 0.961 | 0.934 | 0.993 | 0.865 |  |  |  |  |  |  |  |  | 0.791 | 0.79 | 0.82 | 0.952 | 0.693
NCI-H1563 |  |  |  |  |  |  |  |  |  | 0.48 | 0.535 | 0.595 | 0.476 | 0.664 | 0.637 | 0.697 | 0.667 | 0.627
NCI-H1623 |  |  |  |  |  |  |  |  |  | 0.372 | 0.484 | 0.491 | 0.426 |  |  |  |  | 
NCI-H1648 |  |  | 0.61 | 0.515 | 0.419 | 0.478 | 0.361 | 0.432 | 0.346 |  |  |  |  |  |  |  |  | 
NCI-H1703 | 0.465 |  | 0.223 | 0.244 | 0.194 |  |  |  |  |  |  |  |  | 0.246 | 0.24 | 0.207 | 0.198 | 0.173
NCI-H2342 | 0.385 | 0.443 | 0.481 | 0.386 | 0.365 | 0.741 | 0.802 | 0.936 | 0.83 | 0.759 | 0.701 | 0.834 | 0.601 |  |  |  |  | 
SW 900 | 0.942 | 1.07 |  | 0.915 | 0.945 | 1 | 0.967 | 0.762 | 0.873 | 0.179 | 0.19 | 0.243 | 0.204 |  |  |  |  | 
